Drawing on patent US20140171429A1, “BICYCLIC INHIBITORS OF ALK” (ABBVIE INC., priority 2011, published 2014), this text covers Ki for 31 molecules.

Where only a bound is given, the exact number is not on record here.

This experiment deals with T1, ALK (Homo sapiens, UniProt Q9UM73).
T1 construct: purchased Millipore
T1 sequence (Q9UM73 19-1620): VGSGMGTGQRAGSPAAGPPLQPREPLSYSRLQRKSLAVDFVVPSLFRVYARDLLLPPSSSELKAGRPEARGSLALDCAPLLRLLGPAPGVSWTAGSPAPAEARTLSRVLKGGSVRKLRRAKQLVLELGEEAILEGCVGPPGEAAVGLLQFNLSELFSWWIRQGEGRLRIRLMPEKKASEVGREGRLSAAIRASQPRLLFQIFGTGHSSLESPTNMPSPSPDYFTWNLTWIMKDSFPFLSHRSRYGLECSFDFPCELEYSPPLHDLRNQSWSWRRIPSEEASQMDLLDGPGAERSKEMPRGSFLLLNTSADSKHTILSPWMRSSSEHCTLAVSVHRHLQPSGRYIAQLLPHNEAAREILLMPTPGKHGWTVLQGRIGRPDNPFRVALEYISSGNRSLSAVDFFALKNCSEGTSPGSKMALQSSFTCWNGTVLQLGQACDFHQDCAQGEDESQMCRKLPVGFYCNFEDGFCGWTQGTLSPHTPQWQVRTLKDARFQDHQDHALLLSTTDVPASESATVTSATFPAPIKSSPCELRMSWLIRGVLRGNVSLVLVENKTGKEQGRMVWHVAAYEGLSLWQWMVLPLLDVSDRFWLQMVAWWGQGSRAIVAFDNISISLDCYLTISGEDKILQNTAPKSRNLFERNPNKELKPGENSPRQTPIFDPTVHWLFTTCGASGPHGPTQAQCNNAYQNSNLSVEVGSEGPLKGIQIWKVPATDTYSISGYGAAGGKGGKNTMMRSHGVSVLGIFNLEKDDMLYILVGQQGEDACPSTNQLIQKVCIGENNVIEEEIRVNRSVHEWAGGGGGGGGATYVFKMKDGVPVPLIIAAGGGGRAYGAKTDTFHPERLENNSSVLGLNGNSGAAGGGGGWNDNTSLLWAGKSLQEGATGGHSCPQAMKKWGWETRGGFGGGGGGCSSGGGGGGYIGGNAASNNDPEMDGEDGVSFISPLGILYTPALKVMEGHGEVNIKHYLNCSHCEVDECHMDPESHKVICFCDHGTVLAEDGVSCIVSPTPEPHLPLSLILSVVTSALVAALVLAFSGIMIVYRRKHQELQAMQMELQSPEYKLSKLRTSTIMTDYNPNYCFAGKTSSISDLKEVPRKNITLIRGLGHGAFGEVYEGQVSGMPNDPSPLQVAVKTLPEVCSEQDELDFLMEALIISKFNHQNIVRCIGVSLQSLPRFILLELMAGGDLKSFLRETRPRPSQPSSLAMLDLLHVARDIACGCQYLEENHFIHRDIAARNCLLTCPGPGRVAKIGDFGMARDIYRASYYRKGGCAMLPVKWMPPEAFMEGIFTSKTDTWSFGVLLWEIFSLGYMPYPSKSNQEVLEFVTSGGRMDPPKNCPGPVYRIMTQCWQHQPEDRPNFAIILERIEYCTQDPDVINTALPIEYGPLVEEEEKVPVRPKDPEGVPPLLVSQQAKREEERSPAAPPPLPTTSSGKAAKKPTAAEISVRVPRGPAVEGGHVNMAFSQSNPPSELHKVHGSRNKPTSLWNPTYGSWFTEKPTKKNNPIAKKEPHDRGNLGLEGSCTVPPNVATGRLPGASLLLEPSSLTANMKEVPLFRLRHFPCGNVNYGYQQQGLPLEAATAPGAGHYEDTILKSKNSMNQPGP
Kind of experiment: ALK kinase assay (HTRF_ALK). Format: biochemical. Conditions: apparent Ki converted from IC50 by the Cheng-Prusoff relationship; ALK (Millipore), 50 μM ATP, 1 h at room temperature.
Regarding `COc1cc(N2CCN(C)CC2)ccc1Nc1cc(Cc2c(Cl)cccc2Cl)nc2cc[nH]c(=O)c12` [Example 1, 2-(2,6-dichlorobenzyl)-4-{[2-methoxy-4-(4-methylpiperazin-1-yl)phenyl]amino}-1,6-naphthyridin-5 (6H)-one], the Ki came out at 8 nM. The figure for `COc1cc(N2CCNCC2)ccc1Nc1cc(Cc2c(Cl)cccc2Cl)nc2cc[nH]c(=O)c12` [Example 2, 2-(2,6-dichlorobenzyl)-4-{[2-methoxy-4-(piperazin-1-yl)phenyl]amino}-1,6-naphthyridin-5(6H)-one] is 4 nM. As for `O=c1[nH]ccc2nc(Cc3c(Cl)cccc3Cl)cc(Nc3ccc(N4CCNCC4)cc3)c12` [Example 3, 2-(2,6-dichlorobenzyl)-4-{[4-(piperazin-1-yl)phenyl]amino}-1,6-naphthyridin-5(6H)-one], the Ki is 72 nM. The figure for `COc1cc(N2CCN(C)CC2)ccc1Nc1nc(Cc2c(Cl)cccc2Cl)cc2cc[nH]c(=O)c12` [Example 4, 6-(2,6-dichlorobenzyl)-8-{[2-methoxy-4-(4-methylpiperazin-1-yl)phenyl]amino}-2,7-naphthyridin-1(2H)-one] is 64 nM. The figure for `COc1cc(N2CCN(C)CC2)ccc1Nc1nc(Cc2c(Cl)cccc2Cl)cc2nc[nH]c(=O)c12` [Example 5, 7-(2,6-dichlorobenzyl)-5-{[2-methoxy-4-(4-methylpiperazin-1-yl)phenyl]amino}pyrido[4,3-d]pyrimidin-4(3H)-one] is 7 nM; for `COc1cc(N2CCNCC2)ccc1Nc1nc(Cc2c(Cl)cccc2Cl)cc2nc[nH]c(=O)c12` [Example 6, 7-(2,6-dichlorobenzyl)-5-{[2-methoxy-4-(piperazin-1-yl)phenyl]amino}pyrido[4,3-d]pyrimidin-4(3H)-one] it is 6 nM. As for `O=c1[nH]cnc2cc(Cc3c(Cl)cccc3Cl)nc(Nc3ccc(N4CCNCC4)cc3)c12` [Example 7, 7-(2,6-dichlorobenzyl)-5-{[4-(piperazin-1-yl)phenyl]amino}pyrido[4,3-d]pyrimidin-4(3H)-one], the Ki turned out to be 10 nM. In the case of `COc1cc(N2CCNCC2)ccc1Nc1nc(Cc2c(Cl)cccc2Cl)cc2cc[nH]c(=O)c12` [Example 8, 6-(2,6-dichlorobenzyl)-8-{[2-methoxy-4-(piperazin-1-yl)phenyl]amino}-2,7-naphthyridin-1(2H)-one] it was 3 nM; in that of `O=c1[nH]ccc2cc(Cc3c(Cl)cccc3Cl)nc(Nc3ccc(N4CCNCC4)cc3)c12` [Example 9, 6-(2,6-dichlorobenzyl)-8-{[4-(piperazin-1-yl)phenyl]amino}-2,7-naphthyridin-1(2H)-one], 14 nM. In the case of `COc1cc(N2CCC(N(C)C)CC2)ccc1Nc1nc(Cc2c(Cl)cccc2Cl)cc2cc[nH]c(=O)c12` [Example 10, 6-(2,6-dichlorobenzyl)-8-({4-[4-(dimethylamino)piperidin-1-yl]-2-methoxyphenyl}amino)-2,7-naphthyridin-1(2H)-one] it was 180 nM; in that of `COc1cc(N2CCNCC2)ccc1Nc1cc(Cc2c(Cl)cccc2Cl)nc2nc[nH]c(=O)c12` [Example 11, 7-(2,6-dichlorobenzyl)-5-{[2-methoxy-4-(piperazin-1-yl)phenyl]amino}pyrido[2,3-d]pyrimidin-4(3H)-one], 70 nM. Consider `COc1cc(N2CCNCC2)ccc1Nc1nc(Cc2c(Cl)cccc2Cl)nc2nc[nH]c(=O)c12` [Example 12, 7-(2,6-dichlorobenzyl)-5-{[2-methoxy-4-(piperazin-1-yl)phenyl]amino}pyrimido[4,5-d]pyrimidin-4(3H)-one], for which the Ki was found to be 13 nM.

For `O=c1[nH]ccc2nc(Cc3c(Cl)cccc3Cl)cc(Nc3ccc(N4CCNCC4)c(F)c3)c12` [Example 13, 2-(2,6-dichlorobenzyl)-4-(3-fluoro-4-(piperazin-1-yl)phenylamino)-1,6-naphthyridin-5(6H)-one], the Ki was found to be 3 nM.

On to `COc1cc(N2CCNCC2)ccc1Nc1nc(Cc2c(Cl)cccc2Cl)nc2cc[nH]c(=O)c12` [Example 14, 2-(2,6-dichlorobenzyl)-4-{[2-methoxy-4-(piperazin-1-yl)phenyl]amino}pyrido[4,3-d]pyrimidin-5(6H)-one], for which the Ki worked out at 84 nM. In the case of `O=c1[nH]ccc2nc(Cc3c(Cl)cccc3Cl)nc(Nc3ccc(N4CCNCC4)cc3)c12` [Example 15, 2-(2,6-dichlorobenzyl)-4-{[4-(piperazin-1-yl)phenyl]amino}pyrido[4,3-d]pyrimidin-5(6H)-one] it was 1450 nM; in that of `O=c1[nH]ccc2cc(Cc3c(F)cccc3Cl)nc(Nc3ccc(N4CCNCC4)cc3)c12` [Example 16, 6-(2-chloro-6-fluorobenzyl)-8-{[4-(piperazin-1-yl)phenyl]amino}-2,7-naphthyridin-1(2H)-one], 480 nM. The figure for `COc1cc(C(=O)N2CCN(C)CC2)ccc1Nc1nc(Cc2c(Cl)cccc2Cl)cc2cc[nH]c(=O)c12` [Example 17, 6-(2,6-dichlorobenzyl)-8-({2-methoxy-4-[(4-methylpiperazin-1-yl)carbonyl]phenyl}amino)-2,7-naphthyridin-1(2H)-one] is greater than 1000 nM; for `COc1cc(C(=O)NCCCN2CCOCC2)ccc1Nc1cc(Cc2c(Cl)cccc2Cl)nc2cc[nH]c(=O)c12` [Example 18, 4-{[2-(2,6-dichlorobenzyl)-5-oxo-5,6-dihydro-1,6-naphthyridin-4-yl]amino}-3-methoxy-N-[3-(morpholin-4-yl)propyl]benzamide] it is 51 nM. In the case of `COc1cc(C(=O)NCCCN2CCOCC2)ccc1Nc1nc(Cc2c(Cl)cccc2Cl)cc2cc[nH]c(=O)c12` [Example 19, 4-{[3-(2,6-dichlorobenzyl)-8-oxo-7,8-dihydro-2,7-naphthyridin-1-yl]amino}-3-methoxy-N-[3-(morpholin-4-yl)propyl]benzamide] it was 25 nM; in that of `COc1cc(C(=O)N2CCN(C)CC2)ccc1Nc1cc(Cc2c(Cl)cccc2Cl)nc2cc[nH]c(=O)c12` [Example 20, 2-(2,6-dichlorobenzyl)-4-({2-methoxy-4-[(4-methylpiperazin-1-yl)carbonyl]phenyl}amino)-1,6-naphthyridin-5(6H)-one], 51 nM; in that of `COc1cc(C(=O)NCCN2CCCC2)ccc1Nc1cc(Cc2c(Cl)cccc2Cl)nc2cc[nH]c(=O)c12` [Example 21, 4-{[2-(2,6-dichlorobenzyl)-5-oxo-5,6-dihydro-1,6-naphthyridin-4-yl]amino}-3-methoxy-N-[2-(pyrrolidin-1-yl)ethyl]benzamide], 25 nM. As to `COc1cc(C(=O)NCCN2CCCC2)ccc1Nc1nc(Cc2c(Cl)cccc2Cl)cc2cc[nH]c(=O)c12` [Example 22, 4-{[3-(2,6-dichlorobenzyl)-8-oxo-7,8-dihydro-2,7-naphthyridin-1-yl]amino}-3-methoxy-N-[2-(pyrrolidin-1-yl)ethyl]benzamide], the Ki was 54 nM. The figure for `COc1cc(C(=O)NCCN(C)C)ccc1Nc1cc(Cc2c(Cl)cccc2Cl)nc2cc[nH]c(=O)c12` [Example 23, 4-{[2-(2,6-dichlorobenzyl)-5-oxo-5,6-dihydro-1,6-naphthyridin-4-yl]amino}-N-[2-(dimethylamino)ethyl]-3-methoxybenzamide] is 12 nM; for `COc1cc(C(=O)NCCN2CCCCC2)ccc1Nc1cc(Cc2c(Cl)cccc2Cl)nc2cc[nH]c(=O)c12` [Example 24, 4-{[2-(2,6-dichlorobenzyl)-5-oxo-5,6-dihydro-1,6-naphthyridin-4-yl]amino}-3-methoxy-N-[2-(piperidin-1-yl)ethyl]benzamide] it is 8 nM; for `COc1cc(C(=O)NCCN2CCN(C)CC2)ccc1Nc1cc(Cc2c(Cl)cccc2Cl)nc2cc[nH]c(=O)c12` [Example 25, 4-{[2-(2,6-dichlorobenzyl)-5-oxo-5,6-dihydro-1,6-naphthyridin-4-yl]amino}-3-methoxy-N-[2-(4-methylpiperazin-1-yl)ethyl]benzamide] it is 22 nM. The figure for `COc1cc(C(=O)NCCN2CCN(C)CC2)ccc1Nc1nc(Cc2c(Cl)cccc2Cl)cc2cc[nH]c(=O)c12` [Example 26, 4-{[3-(2,6-dichlorobenzyl)-8-oxo-7,8-dihydro-2,7-naphthyridin-1-yl]amino}-3-methoxy-N-[2-(4-methylpiperazin-1-yl)ethyl]benzamide] is 212 nM; for `COc1cc(C(=O)NCCN2CCCCC2)ccc1Nc1nc(Cc2c(Cl)cccc2Cl)cc2cc[nH]c(=O)c12` [Example 27, 4-{[3-(2,6-dichlorobenzyl)-8-oxo-7,8-dihydro-2,7-naphthyridin-1-yl]amino}-3-methoxy-N-[2-(piperidin-1-yl)ethyl]benzamide] it is 17 nM. The figure for `COc1cc(C(=O)NCCCCN(C)C)ccc1Nc1nc(Cc2c(Cl)cccc2Cl)cc2cc[nH]c(=O)c12` [Example 28, 4-{[3-(2,6-dichlorobenzyl)-8-oxo-7,8-dihydro-2,7-naphthyridin-1-yl]amino}-N-[4-(dimethylamino)butyl]-3-methoxybenzamide] is 36 nM. With `COc1cc(C(=O)N2CCNCC2)ccc1Nc1cc(Cc2c(Cl)cccc2Cl)nc2cc[nH]c(=O)c12` [Example 29, 2-(2,6-dichlorobenzyl)-4-{[2-methoxy-4-(piperazin-1-ylcarbonyl)phenyl]amino}-1,6-naphthyridin-5(6H)-one], the Ki is 11 nM. In the case of `COc1cc(C(=O)NCCCCN(C)C)ccc1Nc1cc(Cc2c(Cl)cccc2Cl)nc2cc[nH]c(=O)c12` [Example 30, 4-{[2-(2,6-dichlorobenzyl)-5-oxo-5,6-dihydro-1,6-naphthyridin-4-yl]amino}-N-[4-(dimethylamino)butyl]-3-methoxybenzamide] it was 20 nM. With `COc1cc(N2CCNCC2)ccc1Nc1cc(Cc2ccccc2Cl)nc2cc[nH]c(=O)c12` [Example 31, 2-(2-chlorobenzyl)-4-{[2-methoxy-4-(piperazin-1-yl)phenyl]amino}-1,6-naphthyridin-5(6H)-one], the Ki worked out at 7 nM.
